Here are results for 12 compounds from patent US20190374533A1, “COMPOUNDS AND METHODS FOR INHIBITING NHE-MEDIATED ANTIPORT IN THE TREATMENT OF DISORDERS ASSOCIATED WITH FLUID RETENTION OR SALT OVERLOAD AND GASTROINTESTINAL TRACT DISORDERS” (Ardelyx, Inc., priority 2008, published 2019).

The data set can be described thus: Parallel artificial membrane permeability assay (PAMPA). The conditions noted are these: pH 7.4. On the technique in general: The PAMPA barrier holds no transporters, so it reflects passive diffusion.

The term Papp A→B denotes how fast a substance crosses the layer from the apical side. Low values mean poor permeation, high ones ready permeation. As to `NC(N)=Nc1nc(-c2ccc(N3CCN(CCCC(=O)O)CC3)cc2)c2cc(Cl)ccc2n1` [Example 73, 4-(4-(4-(6-chloro-2-(diaminomethyleneamino)quinazolin-4-yl)phenyl)piperazin-1-yl)butanoic acid], the apical-to-basolateral permeability (Papp A→B) at 3 h, 20 uM amounted to 0.27 ×10⁻⁶ cm/s.

Compound `CN1Cc2c(Cl)cc(Cl)cc2C(c2cccc(NC(=O)N[C@@H](CCC(=O)O)C(=O)O)c2)C1` (stereo partly drawn) [Example 37, (2S)-2-(3-(3-(6,8-dichloro-2-methyl-1,2,3,4-tetrahydroisoquinolin-4-yl)phenyl)ureido)pentanedioic acid] displayed a Papp A→B at 3 h, 20 uM of 0.1 ×10⁻⁶ cm/s.

As for `C/C(=C\c1cc(F)c(Oc2ccc(S(=O)(=O)NCCCS(=O)(=O)O)cc2)c(F)c1)C(=O)N=C(N)N` [Example 71, (E)-3-(4-(4-(3-(diaminomethyleneamino)-2-methyl-3-oxoprop-1-enyl)-2,6-difluorophenoxy)phenylsulfonamido)propane-1-sulfonic acid], the Papp A→B at 3 h, 20 uM turned out to be 0.45 ×10⁻⁶ cm/s.

`CN1Cc2c(Cl)cc(Cl)cc2C(c2cccc(NC(=O)N[C@@H](CC(=O)O)C(=O)O)c2)C1` (stereo partly drawn) [Example 35, (2S)-2-(3-(3-(6,8-dichloro-2-methyl-1,2,3,4-tetrahydroisoquinolin-4-yl)phenyl)ureido)succinic acid] gave a Papp A→B at 3 h, 20 uM of 0.17 ×10⁻⁶ cm/s.

As for `CN1Cc2c(Cl)cc(Cl)cc2C(c2ccc(S(=O)(=O)Nc3ccc(P(=O)(O)O)cc3)cc2)C1` (stereo not drawn) [Example 76, 4-(4-(6,8-dichloro-2-methyl-1,2,3,4-tetrahydroisoquinolin-4-yl)phenylsulfonamido)phenylphosphonic acid], the Papp A→B at 3 h, 20 uM was determined as 0.2 ×10⁻⁶ cm/s.

Take `C/C(=C\c1cc(F)c(Oc2ccc(S(=O)(=O)NCP(=O)(O)O)cc2)c(F)c1)C(=O)N=C(N)N` [Example 56, (E)-(4-(4-(3-(diaminomethyleneamino)-2-methyl-3-oxoprop-1-enyl)-2,6-difluorophenoxy)phenylsulfonamido)methylphosphonic acid]: the Papp A→B at 3 h, 20 uM is 0.5 ×10⁻⁶ cm/s.

The compound `CN1Cc2c(Cl)cc(Cl)cc2C(c2ccc(NC(=O)N[C@@H](CCC(=O)O)C(=O)O)cc2)C1` (stereo partly drawn) [Example 36] gave a Papp A→B at 3 h, 20 uM of 0.2 ×10⁻⁶ cm/s.

With `NC(N)=Nc1nc(-c2ccc(N3CCN(CC(=O)O)CC3)cc2)c2cc(Cl)ccc2n1` [Example 61, 2-(4-(4-(6-chloro-2-(diaminomethyleneamino)quinazolin-4-yl)phenyl)piperazin-1-yl)acetic acid], the Papp A→B at 3 h, 20 uM is 0.1 ×10⁻⁶ cm/s.

Consider `C/C(=C\c1cc(F)c(Oc2ccc(S(=O)(=O)NC(=O)NCCN(C)C)cc2)c(F)c1)C(=O)N=C(N)N` [Example 75, (E)-N-(diaminomethylene)-3-(4 (4-(N-(2-(dimethylamino)ethylcarbamoyl)sulfamoyl)phenoxy)-3,5-difluorophenyl)-2-methylacrylamide], for which the Papp A→B at 3 h, 20 uM stood at 0.4 ×10⁻⁶ cm/s.

Take `CN1Cc2c(Cl)cc(Cl)cc2C(c2ccc(S(=O)(=O)NCCOCCOCCNS(=O)(=O)c3ccc(C4CN(C)Cc5c(Cl)cc(Cl)cc54)cc3)cc2)C1` (stereo not drawn) [Example 27, N,N′-(2,2′-(ethane-1,2-diylbis(oxy))bis(ethane-2,1-diyl))bis(4-(6,8-dichloro-2-methyl-1,2,3,4-tetrahydroisoquinolin-4-yl)benzenesulfonamide)]: the Papp A→B at 3 h, 20 uM is below 0.02 ×10⁻⁶ cm/s.

In turn, `C/C(=C\c1cc(F)c(Oc2ccc(S(=O)(=O)NCCOCCOCCOCCn3cc(CO)nn3)cc2)c(F)c1)C(=O)N=C(N)N` [Example 48, (E)-N-(diaminomethylene)-3-(3,5-difluoro-4-(4-(N-(2-(2-(2-(2-(4-(hydroxymethyl)-1H-1,2,3-triazol-1-yl)ethoxy)ethoxy)ethoxy)ethyl)sulfamoyl)phenoxy)phenyl)-2-methylacrylamide] returned a Papp A→B at 3 h, 20 uM of 0.9 ×10⁻⁶ cm/s.

As for `CN1Cc2c(Cl)cc(Cl)cc2C(c2ccc(S(=O)(=O)N(CC(=O)O)CP(=O)(O)O)cc2)C1` (stereo not drawn) [Example 72, 2-(4-(6,8-dichloro-2-methyl-1,2,3,4-tetrahydroisoquinolin-4-yl)-N-(phosphonomethyl)phenylsulfonamido)acetic acid], the Papp A→B at 3 h, 20 uM was found to be 0.2 ×10⁻⁶ cm/s.
